Experimental data as given in ChEMBL document CHEMBL1128166, “Synthesis and antiviral activity of rigid acyclonucleotide analogs” (Bioorg Med Chem Lett, 1995).

B1: Guanylate kinase (Homo sapiens), Q16774 (protein)
chain: MSGPRPVVLSGPSGAGKSTLLKRLLQEHSGIFGFSVSHTTRNPRPGEENGKDYYFVTREVMQRDIAAGDFIEHAEFSGNLYGTSKVAVQAVQAMNRICVLDVDLQGVRNIKATDLRPIYISVQPPSLHVLEQRLRQRNTETEESLVKRLAAAQADMESSKEPGLFDVVIINDSLDQAYAELKEALSEEIKKAQRTGA

Columns and labels:
C8166 = assay: Concentration required to inhibit p24 viral antigen production by 50% in C-8166 cells; type: functional, cell-based; settings: Homo sapiens
MT4 [1] = assay: Cytotoxic concentration required to reduce the viability of MT-4 cells; type: functional; settings: Homo sapiens
Vero [2] = assay: The lowest concentration of compound producing overt cytotoxicity in virus-free vero cell cultures; type: functional; settings: Chlorocebus sabaeus
Vero [3] = assay: Anti-herpes virus activity was evaluated against Herpes simplex virus type 1 (HSV-1,strain HF) grown in Vero cells; type: functional, cell-based; settings: Chlorocebus sabaeus
MRC5 [4] = assay: The lowest concentration of compound producing overt cytotoxicity in virus-free MRC-5 cell cultures; type: functional; settings: Homo sapiens
Vero [5] = assay: Anti-herpes virus activity was evaluated against Herpes simplex virus type 2 (HSV-2,strain G) grown in Vero cells; type: functional, cell-based; settings: Chlorocebus sabaeus
MRC5 [6] = assay: Anti-herpes virus activity was evaluated against human cytomegalovirus (HCMV, strain AD-169) grown in MRC-5 cells; type: functional, cell-based
MT4 [7] = assay: Concentration required to inhibit HIV-1-induced cytopathic effect by 50% in MT-4 cells; type: functional, cell-based; settings: Homo sapiens
[8] = tested on: Guanylate kinase (Sus scrofa); assay: Percent efficiency phosphorylated by guanylate kinase taken from hog brain
[9] = substrate: C=C(COCP(=O)(O)O)Cn1cnc2c(O)nc(N)nc21; assay: Vmax for guanylate kinase was determined; settings: Sus scrofa
[10] = substrate: C=C(COCP(=O)(O)O)Cn1cnc2c(O)nc(N)nc21; assay: (§1) Michaelis-Menten constant (Km) for guanylate kinase was determined; settings: Sus scrofa
[11] = substrate: Nc1nc2c(ncn2[C@@H]2O[C@H](COP(=O)(O)O)[C@@H](O)[C@H]2O)c(=O)[nH]1; assay: as §1

Row | Molecule | EC50 (C8166) [µM] | CC50 (MT4 [1]) [µM] | CC50 (Vero [2]) [µM] | EC50 (Vero [3]) [µM] | CC50 (MRC5 [4]) [µM] | EC50 (Vero [5]) [µM] | EC50 (MRC5 [6]) [µM] | EC50 (MT4 [7]) [µM] | Efficacy [8] [%] | Vmax [9] [%] | Km [10] [µM] | Km [11] [µM]
1 | C=C(COCP(=O)(O)O)Cn1ccc(N)nc1=O | > 100 | > 100 | > 250 | > 250 | > 250 | > 250 | > 250 | > 100 |  |  |  | 
2 | Cc1cn([C@H]2C[C@H](N=[N+]=[N-])[C@@H](CO)O2)c(=O)[nH]c1=O [ZIDOVUDINE] | 0.03 | 113 |  |  |  |  |  | 0.035 |  |  |  | 
3 | Nc1nc(O)c2ncn(C/C=C\COCP(=O)(O)O)c2n1 | > 100 | > 1000 | > 250 | 37 | > 250 | > 250 | > 250 | > 100 |  |  |  | 
4 | Nc1ccn(C/C=C\COCP(=O)(O)O)c(=O)n1 | > 100 | > 100 | > 250 | > 250 | > 250 | > 250 | > 250 | > 100 |  |  |  | 
5 | Nc1ccn(CC#CCOCP(=O)(O)O)c(=O)n1 | > 100 | > 100 | > 250 | > 250 | > 250 | > 250 | > 250 | > 100 |  |  |  | 
6 | Nc1ncnc2c1ncn2CCOCP(=O)(O)O [ADEFOVIR] | 1.7 | 187 | ≥ 250 | 58 | > 250 | 69 | 36 | 22 |  |  |  | 
7 | Nc1ncnc2c1ncn2CC#CCOCP(=O)(O)O | > 100 | 800 | ≥ 250 | > 250 | > 250 | > 250 | > 250 | > 100 |  |  |  | 
8 | Nc1nc2c(ncn2COCCO)c(=O)[nH]1 [ACYCLOVIR] |  |  | > 100 | 6 | ≥ 100 | 3 | 18 |  |  |  |  | 
9 | Nc1ncnc2c1ncn2C/C=C\COCP(=O)(O)O | 38 | > 1000 | ≥ 250 | > 250 | > 250 | > 250 | > 250 | 170 |  |  |  | 
10 | C=C(COCP(=O)(O)O)Cn1cnc2c(O)nc(N)nc21 | 1.9 | 1800 | > 250 | > 250 | > 250 | > 250 | 34 | 25 | 0.6 |  |  | 
11 | C=C(COCP(=O)(O)O)Cn1cnc2c(N)ncnc21 | > 100 | > 1000 | > 250 | 36 | > 250 | > 250 | > 250 | > 100 |  |  |  | 
12 | B1 |  |  |  |  |  |  |  |  |  | 8 | 238 | 18
